# Measured values from patent publication US4233291A (priority 1977, dated 1980).
# Legend:
# [1] = tested on: larvae of schistosoma mansoni; assay: Release of 51 chromium from larvae of schistosoma mansoni, cytotoxicity in vivo; conditions: macrophages of the rat stimulated in vivo
# From the text: The depsipeptide from Fusarium equiseti has been tested to determine its action in vivo on the cytotoxicity induced in the intraperitoneal macrophages of the rat against the larvae of schistosoma mansoni.
# The macrophages are stimulated either in vitro or in vivo and are contacted with a suspension of larvae of schistosoma mansoni previously tagged with 51 chromium.
# This measure reflects the significance of cellular lesions on the surface of the schistosomules. The radio activity released in the medium is expressed as a percentage of the total radio-activity present in the schistosomules at the beginning of the experiments.
# [2] = tested on: peritoneal macrophages from unstimulated rats (Fisher strain); assay: Stimulation of the activities of the macrophages, cultivated with the substance; assay type: cell-based; conditions: 16 hours incubation
# Procedure: The peritoneal macrophages from unstimulated rats (Fisher strain) are prelevated through peritoneal washing and isolation on plastic rack. They are cultivated for a night with dosages of the depsipeptide ranging from 1 picogramm to 1 nanogramm/ml.
# The content in proteins, in lysosomal β-glucoronidase, and in cytoplasmic leucine-amino peptidase are determined on the cells previously lysed with 0.05% Triton X-100.
# In the same manner, incubation has also been performed with a solution of lipopolysaccharide from Escherichia coli and Muramyldipeptide as reference substances.
# Amounts of cellular enzymes and proteins in the macrophages after 16 hours incubation.
# The content in proteins is expressed in g/10^6 cells and that in β-glucuronidase in mMol of substrate hydrolysed by 10^6 cells per hour.
# leukemic cells L 1210 = tested on: leukemic cells L 1210; design: species or system mice; conditions: mouse, in vivo
# [3] = 1 ng/ml (row printed after the first 100 ng/ml)
# [4] = 10 ng/ml (second row so printed)
# [5] = 100 ng/ml (second row so printed, last row)
smiles,measurement,setting,value
CC(=O)N[C@@H]1[C@@H](O[C@H](C)C(=O)N[C@@H](C)C(=O)N[C@H](CCC(=O)O)C(N)=O)[C@H](O)[C@@H](CO)O[C@H]1O [Muramyldipeptide],release of 51 Cr (change),[1]; 1 g,+6%
same,release of 51 Cr (change),[1]; 100 g,+10%
same,Proteins,[2]; 1 pg/ml,"46,1 ± 2,2 g/10^6 cells"
same,β-glucuronidase,[2]; 1 pg/ml,"36,5 ± 0,1 mMol of substrate hydrolysed b"
same,Proteins,[2]; 10 pg/ml,"44,8 ± 0,7 g/10^6 cells"
same,β-glucuronidase,[2]; 10 pg/ml,"36,3 ± 6,4 mMol of substrate hydrolysed b"
same,Proteins,[2]; 100 pg/ml,"44,6 ± 1,9 g/10^6 cells"
same,β-glucuronidase,[2]; 100 pg/ml,"41,0 ± 2,9 mMol of substrate hydrolysed b"
same,Proteins,[2]; [3],"45,1 ± 0,9 g/10^6 cells"
same,β-glucuronidase,[2]; [3],"30,6 ± 3,8 mMol of substrate hydrolysed b"
same,Proteins,[2]; 1 ng,"44,0 ± 1,8 g/10^6 cells"
same,β-glucuronidase,[2]; 1 ng,"34,0 ± 5,3 mMol of substrate hydrolysed b"
same,Proteins,[2]; [4],"48,1 ± 1,8 g/10^6 cells"
same,β-glucuronidase,[2]; [4],"32,2 ± 3,0 mMol of substrate hydrolysed b"
same,Proteins,[2]; 10 ng/ml,"43,4 ± 1,8 g/10^6 cells"
same,β-glucuronidase,[2]; 10 ng/ml,"39,6 ± 6,1 mMol of substrate hydrolysed b"
same,Proteins,[2]; [5],"55,3 ± 3,1 g/10^6 cells"
same,β-glucuronidase,[2]; [5],"39,0 ± 1,6 mMol of substrate hydrolysed b"
same,Proteins,[2]; 100 ng/ml,"40,5 ± 0,7 g/10^6 cells"
same,β-glucuronidase,[2]; 100 ng/ml,"23,9 ± 6,2 mMol of substrate hydrolysed b"
O=P1(N(CCCl)CCCl)NCCCO1 (stereo not drawn) [Cyclophosphamide],survival time,leukemic cells L 1210,extends in a statiscally significative manner
